Experimental data published in patent publication US20250353891A1 (MEDIMMUNE LIMITED, priority 2022, published 2025).
Where two headings read alike, the source gives them in different places. Starred links: 1 amine or outer side, 2 acyl side, 3 side chain; linkers in the order of their positions; H or OH if unused. Non-standard residues stand in square brackets, D forms with d. Residues, ends and D or L forms follow the SMILES beside them. Groups on a side chain read outwards from the residue. *: point of attachment. C18 diacid = O=C(O)CCCCCCCCCCCCCCCCC(=O)*; γGlu = O=C(O)[C@H](CCC(=O)[*:2])N[*:1]; αMeF = C[C@](N)(Cc1ccccc1)C(=O)O; AEEA = NCCOCCOCC(=O)O; Aib = CC(C)(N)C(=O)O

Tests used:
[1] = target: human GLP-1 receptor (hGLP-1R) (Homo sapiens, UniProt P43220); test: cAMP production (HTRF) in CHO cells expressing hGLP-1R; format: cell-based; set-up: expressed in transfected cells; settings: for EC50: Table 6, peptides modified at position 17, cAMP in CHO hGLP-1R cells, geometric mean; for % Relative Potency Ratio: Table 6, % GLP-1R activity relative to GLP-1 / % GlucR activity relative to glucagon
Sequence of human GLP-1 receptor (hGLP-1R) (P43220 24-463): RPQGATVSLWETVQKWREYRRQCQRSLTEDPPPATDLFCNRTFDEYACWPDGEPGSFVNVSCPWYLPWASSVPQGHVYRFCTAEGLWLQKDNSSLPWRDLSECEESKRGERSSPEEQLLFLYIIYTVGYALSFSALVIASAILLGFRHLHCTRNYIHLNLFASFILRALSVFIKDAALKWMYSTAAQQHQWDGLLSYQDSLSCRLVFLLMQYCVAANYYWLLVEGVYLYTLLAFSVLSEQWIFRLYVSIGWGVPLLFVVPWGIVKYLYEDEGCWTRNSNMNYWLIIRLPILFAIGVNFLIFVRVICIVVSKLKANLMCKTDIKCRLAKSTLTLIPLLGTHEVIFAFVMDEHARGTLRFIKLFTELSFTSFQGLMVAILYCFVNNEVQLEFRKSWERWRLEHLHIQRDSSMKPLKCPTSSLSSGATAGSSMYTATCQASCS
Summary of the method: (§1)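 Cells were resuspended in assay buffer at batch-optimized density, typically 1×10^5 cells/mL for hGLP-1R and 2×10^5 cells/mL for hGCGR. After 30 min incubation at room temperature with compound, cAMP was measured by two-step HTRF. EC50 values came from 4-parameter logistic fits of % Delta F.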

[2] = target: human glucagon receptor (hGCGR) (Homo sapiens, UniProt P47871); test: cAMP production (HTRF) in CHO cells expressing hGCGR; format: cell-based; set-up: expressed in transfected cells; settings: Table 6, peptides modified at position 17, cAMP in CHO hGCGR cells, geometric mean
Sequence of human glucagon receptor (hGCGR) (P47871 26-477): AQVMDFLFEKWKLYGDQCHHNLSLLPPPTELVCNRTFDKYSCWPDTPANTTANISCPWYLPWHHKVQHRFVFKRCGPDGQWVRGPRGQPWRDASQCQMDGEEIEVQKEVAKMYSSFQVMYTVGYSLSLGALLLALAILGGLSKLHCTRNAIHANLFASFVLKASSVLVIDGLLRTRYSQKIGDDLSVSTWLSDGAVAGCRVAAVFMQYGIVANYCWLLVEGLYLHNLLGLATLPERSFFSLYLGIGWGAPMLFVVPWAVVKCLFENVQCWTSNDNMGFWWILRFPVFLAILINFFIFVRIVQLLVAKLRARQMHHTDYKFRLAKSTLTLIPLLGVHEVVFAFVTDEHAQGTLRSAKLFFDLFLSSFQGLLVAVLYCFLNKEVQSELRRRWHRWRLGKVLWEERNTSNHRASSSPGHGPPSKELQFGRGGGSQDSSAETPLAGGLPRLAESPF
Summary of the method: as §1

| Structure (SMILES) | EC50 ([1]; read-out: hGLP-1R EC50) | % Relative Potency Ratio [1] | EC50 ([2]; read-out: hGluc-R EC50) | EC50 ([1]; hGLP-1R EC50 (pM)) | EC50 ([2]; hGluc-R EC50 (pM)) |
| --- | --- | --- | --- | --- | --- |
| CC(C)C[C@H](NC(=O)[C@H](C)NC(=O)[C@H](CCCNC(=N)N)NC(=O)[C@H](CCCCNC(=O)COCCOCCNC(=O)COCCOCCNC(=O)CC[C@H](NC(=O)CCCCCCCCCCCCCCCCC(=O)O)C(=O)O)NC(=O)[C@H](CO)NC(=O)[C@H](CC(=O)O)NC(=O)[C@H](CC(C)C)NC(=O)[C@](C)(Cc1ccccc1)NC(=O)[C@H](CCCCN)NC(=O)[C@H](CO)NC(=O)[C@@H](NC(=O)[C@H](CC(=O)O)NC(=O)[C@H](CO)NC(=O)[C@@H](NC(=O)[C@H](Cc1ccccc1)NC(=O)[C@@H](NC(=O)CNC(=O)[C@H](CCC(N)=O)NC(=O)C(C)(C)NC(=O)[C@@H](N)Cc1c[nH]cn1)[C@@H](C)O)[C@@H](C)O)C(C)C)C(=O)N[C@@H](CC(=O)O)C(=O)N[C@@H](Cc1ccccc1)C(=O)N[C@H](C(=O)N[C@@H](CCCNC(=N)N)C(=O)N[C@@H](Cc1c[nH]c2ccccc12)C(=O)N[C@@H](CC(C)C)C(=O)N[C@@H](CC(C)C)C(=O)NC(C)(C)C(=O)N[C@H](C(=O)N[C@@H](CCC(=O)O)C(=O)O)[C@@H](C)O)C(C)C [Peptide 168] (H-H[Aib]QGTFTSDVSK[αMeF]LDSK([AEEA-AEEA-γGlu-C18 diacid])RALDFVRWLL[Aib]TE-OH; N-terminus assumed) | 448 pM | 3.9 | 886 pM |  |  |
| CC(C)C[C@H](NC(=O)[C@H](CCC(=O)O)NC(=O)[C@H](CC(C)C)NC(=O)[C@](C)(Cc1ccccc1)NC(=O)[C@H](CCCCN)NC(=O)[C@H](CO)NC(=O)[C@@H](NC(=O)[C@H](CC(=O)O)NC(=O)[C@H](CO)NC(=O)[C@@H](NC(=O)[C@H](Cc1ccccc1)NC(=O)[C@@H](NC(=O)CNC(=O)[C@H](CCC(N)=O)NC(=O)C(C)(C)NC(=O)[C@@H](N)Cc1c[nH]cn1)[C@@H](C)O)[C@@H](C)O)C(C)C)C(=O)N[C@@H](CCCCNC(=O)COCCOCCNC(=O)COCCOCCNC(=O)CC[C@H](NC(=O)CCCCCCCCCCCCCCCCC(=O)O)C(=O)O)C(=O)N[C@@H](CCCNC(=N)N)C(=O)N[C@@H](C)C(=O)N[C@@H](CCC(N)=O)C(=O)N[C@@H](CC(=O)O)C(=O)N[C@@H](Cc1ccccc1)C(=O)N[C@H](C(=O)N[C@@H](CCCNC(=N)N)C(=O)N[C@@H](Cc1c[nH]c2ccccc12)C(=O)N[C@@H](CC(C)C)C(=O)N[C@@H](CC(C)C)C(=O)NC(C)(C)C(=O)N[C@H](C(=O)N[C@@H](CCC(=O)O)C(=O)O)[C@@H](C)O)C(C)C [Peptide 169] (H-H[Aib]QGTFTSDVSK[αMeF]LELK([AEEA-AEEA-γGlu-C18 diacid])RAQDFVRWLL[Aib]TE-OH; N-terminus assumed) |  |  |  | 210 pM | 1400 pM |
| CC(C)C[C@H](NC(=O)[C@H](Cc1c[nH]c2ccccc12)NC(=O)[C@H](CCCNC(=N)N)NC(=O)[C@@H](NC(=O)[C@H](Cc1ccccc1)NC(=O)[C@H](CC(=O)O)NC(=O)[C@H](CCC(N)=O)NC(=O)[C@H](C)NC(=O)[C@H](CCCNC(=N)N)NC(=O)[C@H](CCCCNC(=O)COCCOCCNC(=O)COCCOCCNC(=O)CC[C@H](NC(=O)CCCCCCCCCCCCCCCCC(=O)O)C(=O)O)NC(=O)[C@H](CCC(=O)O)NC(=O)[C@H](CC(=O)O)NC(=O)[C@H](CC(C)C)NC(=O)[C@](C)(Cc1ccccc1)NC(=O)[C@H](CCCCN)NC(=O)[C@H](CO)NC(=O)[C@@H](NC(=O)[C@H](CC(=O)O)NC(=O)[C@H](CO)NC(=O)[C@@H](NC(=O)[C@H](Cc1ccccc1)NC(=O)[C@@H](NC(=O)CNC(=O)[C@H](CCC(N)=O)NC(=O)C(C)(C)NC(=O)[C@@H](N)Cc1c[nH]cn1)[C@@H](C)O)[C@@H](C)O)C(C)C)C(C)C)C(=O)N[C@@H](CC(C)C)C(=O)NC(C)(C)C(=O)N[C@H](C(=O)N[C@@H](CCC(=O)O)C(=O)O)[C@@H](C)O [Peptide 170] (H-H[Aib]QGTFTSDVSK[αMeF]LDEK([AEEA-AEEA-γGlu-C18 diacid])RAQDFVRWLL[Aib]TE-OH; N-terminus assumed) | 148 pM | 11.2 | 836 pM |  |  |
| CC(C)C[C@H](NC(=O)[C@H](Cc1c[nH]c2ccccc12)NC(=O)[C@H](CCCNC(=N)N)NC(=O)[C@@H](NC(=O)[C@H](Cc1ccccc1)NC(=O)[C@H](CC(=O)O)NC(=O)[C@H](CCC(N)=O)NC(=O)[C@H](C)NC(=O)[C@H](CCCNC(=N)N)NC(=O)[C@H](CCCCNC(=O)COCCOCCNC(=O)COCCOCCNC(=O)CC[C@H](NC(=O)CCCCCCCCCCCCCCCCC(=O)O)C(=O)O)NC(=O)[C@H](CO)NC(=O)[C@H](CC(=O)O)NC(=O)[C@H](CC(C)C)NC(=O)[C@](C)(Cc1ccccc1)NC(=O)[C@H](CCCCN)NC(=O)[C@H](CO)NC(=O)[C@@H](NC(=O)[C@H](CC(=O)O)NC(=O)[C@H](CO)NC(=O)[C@@H](NC(=O)[C@H](Cc1ccccc1)NC(=O)[C@@H](NC(=O)CNC(=O)[C@H](CCC(N)=O)NC(=O)C(C)(C)NC(=O)[C@@H](N)Cc1c[nH]cn1)[C@@H](C)O)[C@@H](C)O)C(C)C)C(C)C)C(=O)N[C@@H](CCC(=O)O)C(=O)NC(C)(C)C(=O)N[C@H](C(=O)N[C@@H](CCC(=O)O)C(=O)O)[C@@H](C)O [Peptide 171] (H-H[Aib]QGTFTSDVSK[αMeF]LDSK([AEEA-AEEA-γGlu-C18 diacid])RAQDFVRWLE[Aib]TE-OH; N-terminus assumed) | 107 pM | 7.0 | 376 pM |  |  |
| CC(C)C[C@H](NC(=O)[C@H](Cc1c[nH]c2ccccc12)NC(=O)[C@H](CCCNC(=N)N)NC(=O)[C@@H](NC(=O)[C@H](Cc1ccccc1)NC(=O)[C@H](CC(=O)O)NC(=O)[C@H](CCC(N)=O)NC(=O)[C@H](C)NC(=O)[C@H](CCCNC(=N)N)NC(=O)[C@H](CCCCNC(=O)COCCOCCNC(=O)COCCOCCNC(=O)CC[C@H](NC(=O)CCCCCCCCCCCCCCCCC(=O)O)C(=O)O)NC(=O)[C@H](CO)NC(=O)[C@H](CCC(=O)O)NC(=O)[C@H](CC(C)C)NC(=O)[C@](C)(Cc1ccccc1)NC(=O)[C@H](CCCCN)NC(=O)[C@H](CO)NC(=O)[C@@H](NC(=O)[C@H](CC(=O)O)NC(=O)[C@H](CO)NC(=O)[C@@H](NC(=O)[C@H](Cc1ccccc1)NC(=O)[C@@H](NC(=O)CNC(=O)[C@H](CCC(N)=O)NC(=O)C(C)(C)NC(=O)[C@@H](N)Cc1c[nH]cn1)[C@@H](C)O)[C@@H](C)O)C(C)C)C(C)C)C(=O)N[C@@H](CC(C)C)C(=O)NC(C)(C)C(=O)N[C@H](C(=O)N[C@@H](CCC(=O)O)C(=O)O)[C@@H](C)O [Peptide 172] (H-H[Aib]QGTFTSDVSK[αMeF]LESK([AEEA-AEEA-γGlu-C18 diacid])RAQDFVRWLL[Aib]TE-OH; N-terminus assumed) | 213 pM | 11.8 | 1270 pM |  |  |
| CC(C)C[C@H](NC(=O)[C@H](Cc1c[nH]c2ccccc12)NC(=O)[C@H](CCCNC(=N)N)NC(=O)[C@@H](NC(=O)[C@H](Cc1ccccc1)NC(=O)[C@H](CC(=O)O)NC(=O)[C@H](CCC(N)=O)NC(=O)[C@H](C)NC(=O)[C@H](CCCNC(=N)N)NC(=O)[C@H](CCCCNC(=O)COCCOCCNC(=O)COCCOCCNC(=O)CC[C@H](NC(=O)CCCCCCCCCCCCCCCCC(=O)O)C(=O)O)NC(=O)[C@H](CO)NC(=O)[C@H](CCC(=O)O)NC(=O)[C@H](CC(C)C)NC(=O)[C@](C)(Cc1ccccc1)NC(=O)[C@H](CCCCN)NC(=O)[C@H](CO)NC(=O)[C@@H](NC(=O)[C@H](CC(=O)O)NC(=O)[C@H](CO)NC(=O)[C@@H](NC(=O)[C@H](Cc1ccccc1)NC(=O)[C@@H](NC(=O)CNC(=O)[C@H](CCC(N)=O)NC(=O)C(C)(C)NC(=O)[C@@H](N)Cc1c[nH]cn1)[C@@H](C)O)[C@@H](C)O)C(C)C)C(C)C)C(=O)N[C@@H](CC(C)C)C(=O)NC(C)(C)C(=O)N[C@@H](CCC(=O)O)C(=O)O [Peptide 173] (H-H[Aib]QGTFTSDVSK[αMeF]LESK([AEEA-AEEA-γGlu-C18 diacid])RAQDFVRWLL[Aib]E-OH; N-terminus assumed) | 134 pM | 12.9 | 874 pM |  |  |
| CC(C)C[C@H](NC(=O)[C@H](Cc1c[nH]c2ccccc12)NC(=O)[C@H](CCCNC(=N)N)NC(=O)[C@@H](NC(=O)[C@H](Cc1ccccc1)NC(=O)[C@H](CC(=O)O)NC(=O)[C@H](CCC(N)=O)NC(=O)[C@H](C)NC(=O)[C@H](CCCNC(=N)N)NC(=O)[C@H](CCCCNC(=O)COCCOCCNC(=O)COCCOCCNC(=O)CC[C@H](NC(=O)CCCCCCCCCCCCCCCCC(=O)O)C(=O)O)NC(=O)[C@@H](NC(=O)[C@H](CC(=O)O)NC(=O)[C@H](CC(C)C)NC(=O)[C@](C)(Cc1ccccc1)NC(=O)[C@H](CCCCN)NC(=O)[C@H](CO)NC(=O)[C@@H](NC(=O)[C@H](CC(=O)O)NC(=O)[C@H](CO)NC(=O)[C@@H](NC(=O)[C@H](Cc1ccccc1)NC(=O)[C@@H](NC(=O)CNC(=O)[C@H](CCC(N)=O)NC(=O)C(C)(C)NC(=O)[C@@H](N)Cc1c[nH]cn1)[C@@H](C)O)[C@@H](C)O)C(C)C)[C@@H](C)O)C(C)C)C(=O)N[C@@H](CC(C)C)C(=O)NC(C)(C)C(=O)N[C@H](C(=O)N[C@@H](CCC(=O)O)C(=O)O)[C@@H](C)O [Peptide 174] (H-H[Aib]QGTFTSDVSK[αMeF]LDTK([AEEA-AEEA-γGlu-C18 diacid])RAQDFVRWLL[Aib]TE-OH; N-terminus assumed) | 127 pM | 6.5 | 420 pM |  |  |
